pIC50: −log10 of the molar value.
Columns and labels:
HeLa = assay: MTS proliferation assay; type: cell-based, human; details: 72 h
In short: (§1)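 Proliferation is assessed by MTS conversion, measured as 492 nm absorption. Cells are treated for three days (72 h) with four compound concentrations between 0.3 and 10 μM.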

Jurkat = assay: MTS proliferation assay; type: cell-based, human; details: 72 h
In short: as §1

Jily = assay: MTS proliferation assay; type: cell-based; details: 72 h
In short: as §1

MRC5 = assay: MTS proliferation assay; type: cell-based; details: MRC5, 72 h
In short: as §1

[1] = Hoechst 33342 nuclear staining; type: cell-based; details: for Hoechst 33342 nuclear staining score, H460: H460 cells; for Hoechst 33342 nuclear staining score, HeLa: HeLa cells; for Hoechst 33342 nuclear staining score, Jily: Jily cells; for Hoechst 33342 nuclear staining score, Jurkat: Jurkat cells; for Hoechst 33342 nuclear staining score, MRC5: MRC5 cells;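 as to all read-outs here: apoptotic nuclei scored 0 none 1 weak under 50% of cells 2 strong over 50% of cells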
In short: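 After a further 30 min incubation, plates were inspected on a standard inverted fluorescence microscope. The fraction of apoptotic nuclei and other apoptosis-specific morphology were scored as 0 for no activity, 1 for weak activity in less than 50% of the cells, and 2 for strong activity in more than 50% of the cells.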

Compound	pIC50 (Jily)	Hoechst 33342 nuclear staining score, H460 ([1]; conc 0.1)	Hoechst 33342 nuclear staining score, H460 ([1]; conc 0.3)	Hoechst 33342 nuclear staining score, H460 ([1]; conc 1)	Hoechst 33342 nuclear staining score, H460 ([1]; conc 3)	Hoechst 33342 nuclear staining score, HeLa ([1]; conc 0.1)	Hoechst 33342 nuclear staining score, HeLa ([1]; conc 0.3)	Hoechst 33342 nuclear staining score, HeLa ([1]; conc 1)	Hoechst 33342 nuclear staining score, HeLa ([1]; conc 3)	Hoechst 33342 nuclear staining score, Jily ([1]; conc 0.1)	Hoechst 33342 nuclear staining score, Jily ([1]; conc 0.3)	Hoechst 33342 nuclear staining score, Jily ([1]; conc 1)	Hoechst 33342 nuclear staining score, Jily ([1]; conc 3)	Hoechst 33342 nuclear staining score, Jurkat ([1]; conc 0.1)	Hoechst 33342 nuclear staining score, Jurkat ([1]; conc 0.3)	Hoechst 33342 nuclear staining score, Jurkat ([1]; conc 1)	Hoechst 33342 nuclear staining score, Jurkat ([1]; conc 3)	Hoechst 33342 nuclear staining score, MRC5 ([1]; conc 0.1)	Hoechst 33342 nuclear staining score, MRC5 ([1]; conc 0.3)	Hoechst 33342 nuclear staining score, MRC5 ([1]; conc 1)	also measured
COc1cc(-c2cc(-c3cccnc3)cn2S(=O)(=O)c2ccccc2)cc(OC)c1OC [Example 79]	< 6.00	0	0	0	0	0	0	0	0	0	0	0	0	0	0	0	0	0	0	0	pIC50 (HeLa): < 6.00; pIC50 (Jurkat): > 6.00; pIC50 (MRC5): < 6.00; Hoechst 33342 nuclear staining score, MRC5 ([1]; conc 3): 0; Hoechst 33342 nuclear staining score, PBLs ([1]; conc 0.1): 0; Hoechst 33342 nuclear staining score, PBLs ([1]; conc 0.3): 0; Hoechst 33342 nuclear staining score, PBLs ([1]; conc 1): 0; Hoechst 33342 nuclear staining score, PBLs ([1]; conc 3): 0
COc1cc(-c2cc(-c3cccnc3)cn2S(=O)(=O)c2ccc3c(c2)CCO3)cc(OC)c1OC [Example 86]	> 6.00	0	0	0	2 (strong activity comprising more than 50% of the cells)	0	0	0	1 (weak activity comprising less than 50% of the cells)	0	0	1 (weak activity comprising less than 50% of the cells)	2 (strong activity comprising more than 50% of the cells)	0	0	2 (strong activity comprising more than 50% of the cells)	2 (strong activity comprising more than 50% of the cells)	0	0	0	pIC50 (HeLa): < 6.00; pIC50 (Jurkat): > 6.00; pIC50 (MRC5): < 6.00; Hoechst 33342 nuclear staining score, MRC5 ([1]; conc 3): 1 (weak activity comprising less than 50% of the cells); Hoechst 33342 nuclear staining score, PBLs ([1]; conc 0.1): 0; Hoechst 33342 nuclear staining score, PBLs ([1]; conc 0.3): 0; Hoechst 33342 nuclear staining score, PBLs ([1]; conc 1): 0; Hoechst 33342 nuclear staining score, PBLs ([1]; conc 3): 0
COc1ccc(S(=O)(=O)n2cc(-c3cncc(C(N)=O)c3)cc2-c2cc(OC)c(OC)c(OC)c2)cc1 [Example 104, 4-(3-Aminocarbonylpyrid-5-yl)-1-p-methoxyphenylsulfonyl-2-(3,4,5-trimethoxyphenyl)-pyrrole]	> 6.70	0	2 (strong activity comprising more than 50% of the cells)	2 (strong activity comprising more than 50% of the cells)	2 (strong activity comprising more than 50% of the cells)	0	2 (strong activity comprising more than 50% of the cells)	2 (strong activity comprising more than 50% of the cells)	2 (strong activity comprising more than 50% of the cells)	0	2 (strong activity comprising more than 50% of the cells)	2 (strong activity comprising more than 50% of the cells)	2 (strong activity comprising more than 50% of the cells)	0	2 (strong activity comprising more than 50% of the cells)	2 (strong activity comprising more than 50% of the cells)	2 (strong activity comprising more than 50% of the cells)	0	1 (weak activity comprising less than 50% of the cells)	2 (strong activity comprising more than 50% of the cells)	pIC50 (HeLa; Homo sapiens): > 6.00; pIC50 (Jurkat; Homo sapiens): > 6.70; pIC50 (MRC5; Homo sapiens): > 6.70; Hoechst 33342 nuclear staining score, MRC5 ([1]; conc 3): 2 (strong activity comprising more than 50% of the cells); Hoechst 33342 nuclear staining score, PBLs ([1]; conc 0.1): 0; Hoechst 33342 nuclear staining score, PBLs ([1]; conc 0.3): 0; Hoechst 33342 nuclear staining score, PBLs ([1]; conc 1): 0; Hoechst 33342 nuclear staining score, PBLs ([1]; conc 3): 0
COc1cc(-c2cc(-c3cncc(C(=O)NC(C)CO)c3)cn2S(=O)(=O)c2ccc(C)cc2)cc(OC)c1OC.Cl (stereo not shown) [Example 63]	> 6.00	0	0	0	0	0	0	0	2 (strong activity comprising more than 50% of the cells)	0	0	0	0	0	0	2 (strong activity comprising more than 50% of the cells)	2 (strong activity comprising more than 50% of the cells)	0	0	0	pIC50 (HeLa): > 6.00; pIC50 (Jurkat): > 6.00; pIC50 (MRC5): > 6.00; Hoechst 33342 nuclear staining score, MRC5 ([1]; conc 3): 0; Hoechst 33342 nuclear staining score, PBLs ([1]; conc 0.1): 0; Hoechst 33342 nuclear staining score, PBLs ([1]; conc 0.3): 0; Hoechst 33342 nuclear staining score, PBLs ([1]; conc 1): 0; Hoechst 33342 nuclear staining score, PBLs ([1]; conc 3): 0
